This is an account of results in paper PMC6207618, “The GbsR Family of Transcriptional Regulators: Functional Characterization of the OpuAR Repressor” (Frontiers in Microbiology, 2018).

The test system of assay [1] is opuAA-treA reporter activity. As to the kind of experiment: opuAA-treA reporter fusion TreA enzyme activity assay. To be noted: strain STHB10 (OpuAR+), SMM with 1.2 M NaCl, 1 mM compatible solute. The assay is classed as cell-based, Bacillus subtilis. The source says: opuAAB.infantis′-treA reporter gene fusions were constructed using primers opuAR treA Frag1/2 rev and either opuAR treA Frag1/4 for (Supplementary Table S2) to amplify a 1940-bp DNA fragment from chromosomal DNA of B. infantis NRRL B-14911, including the predicted opuA promoter region and the coding region of opuAR, or primer opuAR treA Frag2 for, to generate a fragment lacking the opuAR gene. PCR products, which had been cut with BamHI and SmaI, were cloned into the vector pJMB1 ([Hoffmann et al., 2013]). This vector carries a promoterless treA gene, whose gene product [phospho-α-(1,1)-glucosidase] can be assayed and photometrically quantitated with the chromogenic substrate α-PNPG ([Gotsche and Dahl, 1995]). The plasmids resulting for the construction of the treA transcriptional reporter gene fusions were named pSTH33 (opuAR^+/opuAAB.i-treA) and pSTH34 (opuAR^-/opuAAB.i-treA) (Supplementary Table S3). All treA reporter gene fusions were stably integrated as a single copy into the chromosome of various B. subtilis strains at the amyE gene; all of these strains carry a gene disruption mutation of the native chromosomal treA gene of B. subtilis to allow the assignment of the measured TreA enzyme activity to the reporter gene constructs (Supplementary Table S1).
Aliquots (1.5 ml) from cultures of B. subtilis strains carrying chromosomal opuAAB.i′-treA reporter operon gene fusions (Supplementary Table S1) were used to monitor the expression levels by assaying the TreA reporter enzyme activity as described previously using the chromogenic substrate α-PNPG ([Gotsche and Dahl, 1995]). The TreA-specific activity is expressed in units per milligram of protein. Protein concentrations were estimated from the optical density of the cell culture harboring the treA reporter operon gene fusion ([Miller, 1972]).
FIGURE 6 Influence of the B. subtilis GbsR-like regulators on the expression of opuA from B. infantis and its transcriptional response to the presence of compatible solutes. (A) Genetic structure of the opuAA-treA transcriptional reporter fusions. (B) The opuAA-treA reporter gene fusions, either including or lacking the B. infantis opuAR gene, were integrated into the chromosome of the B. subtilis strain STHB05; it carries gene disruption mutations of all three GbsR-like regulators, resulting in strains STHB10 (OpuAR^+) and STHB11 (OpuAR^-). […] The opuAA-treA reporter strains were grown in SMM to early exponential growth phase (OD578 1–1.5) and then assayed for TreA reporter enzyme activity. The shown data represent four independent biological replicates and each culture was assayed twice. (C) Strain STHB10 (opuAR^+/opuAA-treA) was grown in SMM with increasing NaCl concentrations until each of these cultures reached mid-exponential growth phase (OD578 of about 1.5) and were then harvested for TreA reporter enzyme activity assays. The given data are the means and standard deviations of four independent biological replicates and each culture was assayed twice. (D) Expression of the opuAA-treA reporter gene construct in response to extracellular provided compatible solutes. The opuAA-treA reporter fusion strains STHB10 (OpuAR^+) and STHB11 (OpuAR^-) were cultivated in SMM containing 1.2 M NaCl either in the absence or presence of 1 mM of the indicated compatible solutes. The opuAA-treA reporter fusion strains were grown to early exponential growth phase (OD578 1–1.5) and then assayed for TreA reporter enzyme activity. The given data are the means and standard deviations of four independent biological replicates and each culture was assayed twice.
To identify possible effector molecules for the B. infantis OpuAR protein, we conducted a series of in vivo experiments in which we assessed any possible inducing effects of compatible solutes on opuAA-treA transcriptional activity in an OpuAR-dependent fashion (Figure 6D).

Assay [2] concerns the target OpuAR (Bacillus infantis, UniProt U5LJR5). As to the kind of experiment: Intrinsic tryptophan fluorescence ligand binding, purified OpuAR (wild type). As to the method:
Overproduction of the OpuAR repressor protein and its mutant derivatives was carried out in the E. coli B strain BL21 harboring plasmid pMP_AR1, a derivative of the expression vector pASK-IBA3plus (IBA, Göttingen, Germany) (Supplementary Table S3). […] De-repression of P-tet promoter activity is achieved by adding the synthetic inducer AHT to the growth medium. Cultures of the E. coli B. strain BL21 (pMP_AR1) were inoculated (to a OD578 of 0.1) from pre-cultures prepared in MMA ([Miller, 1972]) supplemented with 0.5% glucose (wt/vol) as the carbon source, 0.5% casamino acids (wt/vol), 1 mg l^-1 thiamine, and 1 mM MgSO4. The cultures also contained ampicillin (100 μg ml^-1) to select for the presence of plasmid pMP_AR1 (or its mutant derivatives) and they were grown at 37°C. When the main cultures reached an OD578 of 0.5, enhanced expression of the opuAR gene from P-tet was induced by the addition of AHT to a final concentration of 0.2-μg ml^-1. Cells were grown for an additional 2 h, before they were harvested by centrifugation (at 4°C at 4,800 × g for 20 min). […]
The dissociation constants of OpuAR for choline and glycine betaine were determined by intrinsic tryptophan fluorescence spectroscopy as described previously using a Carry Eclips fluorescence spectrometer (Varian, Surry, United Kingdom) ([Pittelkow et al., 2011]; [Nau-Wagner et al., 2012]).

Assay [3] concerns the target B. subtilis GbsR protein. Details: method as in Nau-Wagner et al., 2012. The settings on record: purified B. subtilis GbsR, ref Nau-Wagner et al., 2012, cited from earlier work.

Entries after “also recorded” stand apart in the source; their conditions may differ. Read-outs that look alike come from different tables or passages of the source.

OpuAR, sequence (U5LJR5 entry or part of it): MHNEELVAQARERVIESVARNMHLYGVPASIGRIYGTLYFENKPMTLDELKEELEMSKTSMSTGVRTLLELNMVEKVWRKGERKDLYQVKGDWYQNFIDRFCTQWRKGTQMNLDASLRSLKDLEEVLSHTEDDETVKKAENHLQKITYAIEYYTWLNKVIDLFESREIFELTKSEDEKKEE

As to `CN(C)CC(=O)O` [DMG, dimethlyglycine], in assay [1], the “Induction of opuAA-treA reporter activity (OpuAR-dependent)” value (shortened to “Induction”) is “did not serve as inducers”. `C[S+](C)CCC(=O)[O-]` [DMSP, dimethylsulfoniopropionate]: the “Induction” value in assay [1] is listed as “did not serve as inducers”. By Kd is commonly meant the equilibrium constant for the complex coming apart. Take `C[N+](C)(C)CCO` [choline]: the results for the Kd in assay [2] and in assay [3] (intrinsic Trp-fluorescence) were 193 ± 40 µM and 165 ± 15 µM, respectively. Further, the “Induction” value in assay [1] is recorded as “served as inducers; also recorded: induced”. On to `C[N+](C)(C)CC(=O)[O-]` [glycine betaine], for which the Kd in assay [2] (purified OpuAR-Strep-tag II wild type, 5 μM protein, read-out: Kd) is 301 ± 24 µM. The “Induction” value in assay [1] is given as “served as inducers; also recorded: induced”. For the same compound, the “Binding by GbsR” value in assay [3] is given as “does not bind”.

In the case of `C[N+](C)(C)CCC(=O)[O-]` [homobetaine], in assay [1], the “Induction” value is “did not serve as inducers”. As for `C[N+]1(C)CCC[C@H]1C(=O)[O-]` [proline betaine], in assay [1], the “Induction” value is “served as inducers; also recorded: induced”.
